Reference: patent publication US12037344B2, “NLRP3 modulators” (INNATE TUMOR IMMUNITY, INC., priority 2018, dated 2024)
Where a name gives a salt, the structure may show the parent alone. Read-outs that look alike come from different tables or passages of the source.

How the values were obtained:
THP-1 cells = experiment: Measurement of IL-1β production, hTRF protocol (second alternative procedure), THP-1 cells; assay type: cell-based, human; conditions: human cells, read-out: NLRP3 hILIB EC50
Summary of the method: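 THP-1 cells differentiated overnight with 50 ng/ml PMA, then plated at 50,000 cells/well in RPMI with 2% FBS onto serial compound dilutions (top final concentration 10 μM) for 2 hours at 37° C. Supernatant IL-1β measured by hTRF (antibodies at 1:40, overnight at 4° C), read at 665/615 nm against a standard curve.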

TLR8 = molecular target: T1, TLR8 (Homo sapiens, UniProt Q9NR97); experiment: In vitro human TLR8 binding reporter assay (HEK-Blue, NF-kB/AP1-inducible SEAP); assay type: cell-based; conditions: activity range, read-out: TLR8 Agonist EC50
T1 construct: human HEK-Blue cells co-expressing a TLR7 or TLR8 gene
T1 sequence (Q9NR97 27-1041): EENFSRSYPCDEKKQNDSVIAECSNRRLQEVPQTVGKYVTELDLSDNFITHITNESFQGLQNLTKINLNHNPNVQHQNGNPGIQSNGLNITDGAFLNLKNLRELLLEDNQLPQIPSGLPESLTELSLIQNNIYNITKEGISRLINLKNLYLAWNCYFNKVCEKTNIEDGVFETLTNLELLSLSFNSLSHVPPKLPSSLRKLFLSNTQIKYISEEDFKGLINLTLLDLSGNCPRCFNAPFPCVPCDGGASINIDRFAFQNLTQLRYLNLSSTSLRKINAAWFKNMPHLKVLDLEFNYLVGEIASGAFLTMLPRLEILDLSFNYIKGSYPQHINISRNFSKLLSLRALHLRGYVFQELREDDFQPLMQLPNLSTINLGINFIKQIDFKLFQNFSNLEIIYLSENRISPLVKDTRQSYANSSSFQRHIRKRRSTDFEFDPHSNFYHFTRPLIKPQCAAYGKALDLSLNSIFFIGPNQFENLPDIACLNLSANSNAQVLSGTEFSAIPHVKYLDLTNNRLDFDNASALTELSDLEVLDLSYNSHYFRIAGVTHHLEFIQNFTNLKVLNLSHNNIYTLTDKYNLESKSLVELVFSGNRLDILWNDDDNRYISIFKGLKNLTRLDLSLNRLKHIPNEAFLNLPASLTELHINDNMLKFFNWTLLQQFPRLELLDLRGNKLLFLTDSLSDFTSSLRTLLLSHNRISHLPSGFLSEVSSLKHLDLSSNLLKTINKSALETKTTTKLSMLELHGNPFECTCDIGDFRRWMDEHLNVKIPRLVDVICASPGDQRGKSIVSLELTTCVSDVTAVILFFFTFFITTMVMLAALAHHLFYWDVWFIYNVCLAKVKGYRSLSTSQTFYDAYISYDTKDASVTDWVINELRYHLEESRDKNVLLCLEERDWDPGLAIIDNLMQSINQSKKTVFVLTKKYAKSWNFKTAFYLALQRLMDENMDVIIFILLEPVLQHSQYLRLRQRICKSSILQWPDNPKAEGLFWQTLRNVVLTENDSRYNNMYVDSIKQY
Summary of the method: (§1)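 HEK-Blue cells expressing human TLR7 or TLR8 with NF-kB/AP1-inducible SEAP reporter, plated 24 h, then compound-treated 18 h at 37° C, 5% CO2. EC50 normalized to 100% Ymax set by 50 μM reference standard.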

TLR7 = molecular target: T2, TLR7 (Homo sapiens, UniProt Q9NYK1); experiment: In vitro human TLR7 binding reporter assay (HEK-Blue, NF-kB/AP1-inducible SEAP); assay type: cell-based; conditions: activity range, read-out: TLR7 Agonist EC50
T2 construct: human HEK-Blue cells co-expressing a TLR7 or TLR8 gene
T2 sequence (Q9NYK1 27-1049): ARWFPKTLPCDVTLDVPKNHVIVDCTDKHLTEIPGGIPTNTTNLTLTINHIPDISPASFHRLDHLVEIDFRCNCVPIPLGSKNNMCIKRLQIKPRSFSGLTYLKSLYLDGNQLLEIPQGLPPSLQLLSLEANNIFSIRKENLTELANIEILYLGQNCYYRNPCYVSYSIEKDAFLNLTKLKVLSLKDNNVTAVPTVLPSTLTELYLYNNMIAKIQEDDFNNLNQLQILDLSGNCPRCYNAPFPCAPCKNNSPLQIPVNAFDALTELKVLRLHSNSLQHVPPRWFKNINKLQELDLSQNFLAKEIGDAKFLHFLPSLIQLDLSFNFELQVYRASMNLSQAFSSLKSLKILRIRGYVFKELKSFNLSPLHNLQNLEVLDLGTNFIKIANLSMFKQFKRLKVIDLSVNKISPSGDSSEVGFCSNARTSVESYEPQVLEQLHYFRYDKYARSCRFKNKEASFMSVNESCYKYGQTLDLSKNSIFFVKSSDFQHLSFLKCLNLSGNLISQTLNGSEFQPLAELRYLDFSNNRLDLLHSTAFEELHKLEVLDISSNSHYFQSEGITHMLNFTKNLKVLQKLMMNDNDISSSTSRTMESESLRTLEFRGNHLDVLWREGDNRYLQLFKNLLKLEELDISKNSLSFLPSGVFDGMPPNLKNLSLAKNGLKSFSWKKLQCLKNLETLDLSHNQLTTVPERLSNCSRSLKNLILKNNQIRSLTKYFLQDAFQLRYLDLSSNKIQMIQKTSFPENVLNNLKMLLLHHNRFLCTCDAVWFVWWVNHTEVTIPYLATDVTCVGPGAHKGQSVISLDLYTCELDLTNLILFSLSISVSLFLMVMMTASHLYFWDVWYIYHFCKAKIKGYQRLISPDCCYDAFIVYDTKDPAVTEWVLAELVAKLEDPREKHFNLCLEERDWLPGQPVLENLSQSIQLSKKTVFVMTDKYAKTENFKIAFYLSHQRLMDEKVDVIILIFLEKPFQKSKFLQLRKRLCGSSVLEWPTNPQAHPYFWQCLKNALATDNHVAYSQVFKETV
Summary of the method: as §1

[1] = Homo sapiens, THP-1, IL-1β production

Row | EC50 (THP-1 cells; [1]) [nM] | EC50 (TLR8) [µM] | EC50 (TLR7) [µM] | EC50 (THP-1 cells; IL-1β production) [nM] | SMILES
1 | 690 | > 100 | > 100 | – | C[C@H](O)Cn1cc2c(N)nc3cc(-c4cc[nH]n4)c(F)cc3c2n1 [Example 405]
2 | 330 | > 100 | > 100 | – | CC(C)(CCO)n1cc2c(N)nc3cc(-c4cc[nH]n4)ccc3c2n1 [Example 410, 3-(4-amino-7-(1H-pyrazol-3-yl)-2H-pyrazolo[4,3-c]quinolin-2-yl)-3-methylbutan-1-ol, TFA]
3 | 2800 | > 100 | > 100 | – | Nc1nc2cc(-c3cc[nH]n3)ccc2c2[nH]c(CCNC(=O)C3CCCO3)cc12 (stereo not drawn) [Example 414]
4 | 1890 | > 100 | > 100 | – | Nc1nc2cc(-c3cc[nH]n3)ccc2c2[nH]c(CCNC(=O)C3CCCCO3)cc12 (stereo not drawn) [Example 415]
5 | 150 | > 100 | > 100 | – | Nc1nc2cc(-c3cc[nH]n3)ccc2c2[nH]c(CCNC(=O)c3cc(F)ccn3)cc12 [Example 416]
6 | 3650 | > 100 | > 100 | – | Nc1nc2cc(-c3cc[nH]n3)ccc2c2[nH]c(CNC(=O)c3ccc(F)cn3)cc12 [Example 418]
7 | 460 | > 100 | > 100 | – | Nc1nc2cc(-c3cc[nH]n3)ccc2c2[nH]c(CN[C@H]3CCOC3)cc12 [Example 421]
8 | 5730 | > 100 | > 100 | – | CC(=O)NC(C)CCn1cc2c(N)nc3cc(-n4cccn4)ccc3c2n1 (stereo not drawn) [Example 425]
9 | 1810 | > 100 | > 100 | – | CC(O)Cn1ncc2c(N)nc3cc(-c4cc[nH]n4)ccc3c21 (stereo not drawn) [Example 428]
10 | 13000 | > 100 | > 100 | – | CC(=O)NC(C)Cn1ncc2c(N)nc3cc(-c4cc[nH]n4)ccc3c21 (stereo not drawn) [Example 429]
11 | 3190 | > 100 | > 100 | – | CC(C)(O)Cn1ncc2c(N)nc3cc(-c4cc[nH]n4)ccc3c21 [Example 432]
12 | 4580 | > 100 | > 100 | – | Nc1nc2cc(-n3cccn3)ccc2c2nn(CC3COCCN3)cc12 (stereo not drawn) [Example 433]
13 | 3610 | > 100 | > 100 | – | COC1CN(CCn2ncc3c(N)nc4cc(-c5cc[nH]n5)ccc4c32)C1 [Example 435]
14 | 2750 | > 100 | > 100 | – | Nc1nc2cc(-c3cc[nH]n3)ccc2c2c1cnn2CCN1CCOCC1 [Example 436]
15 | 990 | > 100 | > 100 | – | NCc1cc2c(N)nc3cc(-c4ccn[nH]4)ccc3c2[nH]1 [Example 438]

The remaining lines, values behind:

Row | SMILES | EC50 (THP-1 cells; [1]) [nM] | EC50 (TLR8) [µM] | EC50 (TLR7) [µM] | EC50 (THP-1 cells; IL-1β production) [nM]
16 | Nc1nc2cc(-c3cc[nH]n3)c(F)cc2c2nn(CCO)cc12 [Example 404] | 740 | > 100 | > 100 | –
17 | COCCn1cc2c(N)nc3cc(-c4cc[nH]n4)c(F)cc3c2n1 [Example 406] | 450 | > 100 | > 100 | –
18 | CC(C)(CO)n1cc2c(N)nc3cc(-c4cc[nH]n4)ccc3c2n1 [Example 407, 2-(4-amino-7-(1H-pyrazol-3-yl)-2H-pyrazolo[4,3-c]quinolin-2-yl)-2-methylpropan-1-ol, TFA] | – | > 100 | > 100 | 500
19 | Nc1nc2cc(-c3cc[nH]n3)ccc2c2nn(Cc3cc(CO)no3)cc12 [Example 408] | 1940 | > 100 | > 100 | –
20 | Nc1nc2cc(-c3cc[nH]n3)ccc2c2nn(Cc3ccnc(CO)c3)cc12 [Example 409] | 1470 | > 100 | > 100 | –
21 | Nc1nc2cc(-c3ccn[nH]3)ccc2c2[nH]c(CN3CCOCC3)cc12 [Example 411, 2-[(morpholin-4-yl)methyl]-7-(1H-pyrazol-5-yl)-1H-pyrrolo[3,2-c]quinolin-4-amine] | 640 | > 100 | > 100 | –
22 | Nc1nc2cc(-c3cc[nH]n3)ccc2c2[nH]c(CNC(=O)C3CCCO3)cc12 (stereo not drawn) [Example 412] | 1870 | > 100 | > 100 | –
23 | Nc1nc2cc(-c3cc[nH]n3)ccc2c2[nH]c(CNC(=O)C3CCCCO3)cc12 (stereo not drawn) [Example 413] | 1920 | > 100 | > 100 | –
24 | Nc1nc2cc(-c3cc[nH]n3)ccc2c2[nH]c(CCNC(=O)c3ccc(F)cn3)cc12 [Example 417] | 160 | > 100 | > 100 | –
25 | COCCNCc1cc2c(N)nc3cc(-c4cc[nH]n4)ccc3c2[nH]1 [Example 419] | 350 | > 100 | > 100 | –
26 | CCNCc1cc2c(N)nc3cc(-c4cc[nH]n4)ccc3c2[nH]1 [Example 420] | 510 | > 100 | > 100 | –
27 | Nc1nc2cc(-c3cc[nH]n3)ccc2c2[nH]c(CN[C@@H]3CCOC3)cc12 [Example 422] | 140 | > 100 | > 100 | –
28 | Cc1[nH]c2c(c(N)nc3cc(-c4cc[nH]n4)ccc32)c1C [Example 423, 2,3-dimethyl-7-(1H-pyrazol-3-yl)-1H-pyrrolo[3,2-c]quinolin-4-amine] | 620 | > 100 | > 100 | –
29 | CC(=O)NC(C)Cn1cc2c(N)nc3cc(-n4cccn4)ccc3c2n1 (stereo not drawn) [Example 424] | 3210 | > 100 | > 100 | –
30 | CC(N)CCn1cc2c(N)nc3cc(-n4cccn4)ccc3c2n1 (stereo not drawn) [Example 426] | 1890 | > 100 | > 100 | –
31 | CC(C)(O)CCn1ncc2c(N)nc3cc(-c4cc[nH]n4)ccc3c21 [Example 427] | 2010 | > 100 | > 100 | –
32 | Nc1nc2cc(-c3cc[nH]n3)ccc2c2c1cnn2CCN1CC(F)(F)C1 [Example 430] | 1900 | > 100 | > 100 | –
33 | CC(Cn1cc2c(N)nc3cc(-n4cccn4)ccc3c2n1)NC(=O)C(C)(C)F (stereo not drawn) [Example 431] | 1230 | > 100 | > 100 | –
34 | COC1CCN(CCn2ncc3c(N)nc4cc(-c5cc[nH]n5)ccc4c32)C1 (stereo not drawn) [Example 434] | 4350 | > 100 | > 100 | –
35 | NCc1cc2c(N)nc3cc(-n4cccn4)ccc3c2[nH]1 [Example 437] | 560 | > 100 | > 100 | –
